Reference: the supplement of paper PMC12463676, “Small-molecule dissolution of stress granules by redox modulation benefits ALS models” (Nature Chemical Biology, 2025)

Assays:
lipoamide = compound: NC(=O)CCCCC1CCSS1 [lipoamide]; experiment: thermal stability z-score vs DMSO; higher = more thermally stabilized by treatment; settings: HeLa, lipoamide concentration 100 µM
Method: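 Cellular thermal proteome profiling in HeLa cells. Cells were treated with 100 µM lipoamide for 1 h, with or without 1 mM arsenate for a further 1 h, then heated to ten temperatures (37-66.3 °C), and soluble protein was quantified by TMT mass spectrometry relative to 0.1% DMSO controls. The thermal stability score (sum of log2 fold changes minus the abundance score) was transformed to a z-score; mean of n = 3 experiments.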

potassium arsenate = compound: O=[As]([O-])(O)O.[K+] [potassium arsenate]; experiment: as above; settings: HeLa; arsenate concentration 1 mM
Method: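 Cellular thermal proteome profiling in HeLa cells treated with 1 mM arsenate for 1 h (DMSO pretreatment), heated to ten temperatures (37-66.3 °C). Soluble protein was quantified by TMT mass spectrometry relative to DMSO controls; the thermal stability score was transformed to a z-score; mean of n = 3 experiments.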

[1] = arsenate co-treatment: 1 mM arsenate 1 h
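Note: each temperature applied for 3 min, abundance score taken as mean log2 fold change at the two lowest temperatures, z-score obtained by mean subtraction and division by SD.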

Chain of UniProt P78316 (P78316 whole entry): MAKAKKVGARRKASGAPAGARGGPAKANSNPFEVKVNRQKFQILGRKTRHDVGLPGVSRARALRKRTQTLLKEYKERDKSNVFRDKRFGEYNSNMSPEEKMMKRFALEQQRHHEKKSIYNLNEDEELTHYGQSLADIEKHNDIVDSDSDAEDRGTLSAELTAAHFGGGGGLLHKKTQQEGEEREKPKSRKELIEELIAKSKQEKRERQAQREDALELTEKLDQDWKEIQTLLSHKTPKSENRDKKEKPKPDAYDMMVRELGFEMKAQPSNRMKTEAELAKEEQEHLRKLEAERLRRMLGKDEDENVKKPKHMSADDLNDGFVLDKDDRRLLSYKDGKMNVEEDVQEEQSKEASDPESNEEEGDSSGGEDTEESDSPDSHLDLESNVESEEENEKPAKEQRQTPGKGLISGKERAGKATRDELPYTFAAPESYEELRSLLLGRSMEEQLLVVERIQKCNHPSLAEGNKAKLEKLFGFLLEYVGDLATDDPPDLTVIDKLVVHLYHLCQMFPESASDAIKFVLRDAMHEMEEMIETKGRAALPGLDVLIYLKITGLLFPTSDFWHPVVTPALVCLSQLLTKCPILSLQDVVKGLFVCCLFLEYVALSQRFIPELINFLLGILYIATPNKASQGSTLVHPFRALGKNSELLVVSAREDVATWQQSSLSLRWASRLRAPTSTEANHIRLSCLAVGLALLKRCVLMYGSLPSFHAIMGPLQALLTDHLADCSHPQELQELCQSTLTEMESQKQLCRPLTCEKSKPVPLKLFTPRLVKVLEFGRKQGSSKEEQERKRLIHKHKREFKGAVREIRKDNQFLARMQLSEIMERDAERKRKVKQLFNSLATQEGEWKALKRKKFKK
Chain of UniProt Q5VT52 (Q5VT52 whole entry): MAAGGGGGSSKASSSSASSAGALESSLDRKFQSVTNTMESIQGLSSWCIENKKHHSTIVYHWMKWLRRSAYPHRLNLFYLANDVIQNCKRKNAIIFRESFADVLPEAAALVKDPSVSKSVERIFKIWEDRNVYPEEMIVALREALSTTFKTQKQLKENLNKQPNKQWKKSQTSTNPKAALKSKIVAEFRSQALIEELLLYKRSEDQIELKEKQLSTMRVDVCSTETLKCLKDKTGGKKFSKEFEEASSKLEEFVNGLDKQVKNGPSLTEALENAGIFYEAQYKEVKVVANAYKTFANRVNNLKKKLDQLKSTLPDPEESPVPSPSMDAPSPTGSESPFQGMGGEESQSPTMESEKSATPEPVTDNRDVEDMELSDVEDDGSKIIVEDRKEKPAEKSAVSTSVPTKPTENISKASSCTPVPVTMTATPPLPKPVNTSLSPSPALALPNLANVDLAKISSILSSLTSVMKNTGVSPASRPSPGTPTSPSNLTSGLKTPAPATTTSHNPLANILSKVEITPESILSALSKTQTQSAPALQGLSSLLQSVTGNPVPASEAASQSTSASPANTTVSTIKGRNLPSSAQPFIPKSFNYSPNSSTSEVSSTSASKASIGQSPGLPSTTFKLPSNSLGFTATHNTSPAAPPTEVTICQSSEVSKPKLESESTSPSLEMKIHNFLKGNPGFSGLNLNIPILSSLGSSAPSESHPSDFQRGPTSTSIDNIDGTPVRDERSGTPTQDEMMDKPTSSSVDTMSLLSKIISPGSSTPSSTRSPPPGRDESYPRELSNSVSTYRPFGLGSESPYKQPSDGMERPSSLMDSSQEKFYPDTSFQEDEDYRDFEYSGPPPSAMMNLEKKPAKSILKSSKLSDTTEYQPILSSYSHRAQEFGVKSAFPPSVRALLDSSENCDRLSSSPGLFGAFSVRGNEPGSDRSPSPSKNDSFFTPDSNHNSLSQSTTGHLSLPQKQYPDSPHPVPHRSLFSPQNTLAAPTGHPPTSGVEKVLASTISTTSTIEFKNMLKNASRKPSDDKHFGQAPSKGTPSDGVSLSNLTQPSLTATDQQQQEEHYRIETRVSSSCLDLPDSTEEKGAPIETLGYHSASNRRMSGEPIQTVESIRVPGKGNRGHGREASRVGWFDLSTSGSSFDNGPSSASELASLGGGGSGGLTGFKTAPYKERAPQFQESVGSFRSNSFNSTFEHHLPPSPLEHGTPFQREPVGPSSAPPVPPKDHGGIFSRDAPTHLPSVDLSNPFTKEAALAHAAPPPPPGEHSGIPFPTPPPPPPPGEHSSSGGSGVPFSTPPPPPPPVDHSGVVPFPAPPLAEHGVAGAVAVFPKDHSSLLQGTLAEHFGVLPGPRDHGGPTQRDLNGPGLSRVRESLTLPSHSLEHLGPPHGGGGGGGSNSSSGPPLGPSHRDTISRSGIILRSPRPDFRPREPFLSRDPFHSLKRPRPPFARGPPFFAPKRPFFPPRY
Chain of UniProt P15374 (P15374 whole entry): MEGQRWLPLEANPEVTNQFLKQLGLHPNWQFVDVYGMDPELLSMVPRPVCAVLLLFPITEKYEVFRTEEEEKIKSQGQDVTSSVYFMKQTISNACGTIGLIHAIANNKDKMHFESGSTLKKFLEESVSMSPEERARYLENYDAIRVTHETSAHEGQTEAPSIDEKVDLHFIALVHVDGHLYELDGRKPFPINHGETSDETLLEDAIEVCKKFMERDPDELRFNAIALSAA
Chain of UniProt P08651 (P08651 whole entry): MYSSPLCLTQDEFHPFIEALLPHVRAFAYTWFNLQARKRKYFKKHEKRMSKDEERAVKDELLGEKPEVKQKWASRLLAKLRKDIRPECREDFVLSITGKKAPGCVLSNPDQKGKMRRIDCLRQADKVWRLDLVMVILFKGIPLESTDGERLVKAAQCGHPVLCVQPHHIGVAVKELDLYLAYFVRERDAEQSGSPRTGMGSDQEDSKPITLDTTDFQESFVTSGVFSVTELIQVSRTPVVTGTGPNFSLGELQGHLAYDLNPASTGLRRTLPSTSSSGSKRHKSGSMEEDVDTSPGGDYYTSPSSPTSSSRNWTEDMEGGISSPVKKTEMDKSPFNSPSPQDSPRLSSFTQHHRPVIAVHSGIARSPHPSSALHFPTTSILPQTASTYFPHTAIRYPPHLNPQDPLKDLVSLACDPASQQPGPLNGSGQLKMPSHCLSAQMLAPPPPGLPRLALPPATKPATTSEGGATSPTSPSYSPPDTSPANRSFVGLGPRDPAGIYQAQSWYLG
Chain of UniProt Q9Y333 (Q9Y333 whole entry): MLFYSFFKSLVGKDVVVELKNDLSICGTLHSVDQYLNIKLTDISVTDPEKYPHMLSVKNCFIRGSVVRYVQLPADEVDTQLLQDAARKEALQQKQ
Chain of UniProt Q9HBH5 (Q9HBH5 whole entry): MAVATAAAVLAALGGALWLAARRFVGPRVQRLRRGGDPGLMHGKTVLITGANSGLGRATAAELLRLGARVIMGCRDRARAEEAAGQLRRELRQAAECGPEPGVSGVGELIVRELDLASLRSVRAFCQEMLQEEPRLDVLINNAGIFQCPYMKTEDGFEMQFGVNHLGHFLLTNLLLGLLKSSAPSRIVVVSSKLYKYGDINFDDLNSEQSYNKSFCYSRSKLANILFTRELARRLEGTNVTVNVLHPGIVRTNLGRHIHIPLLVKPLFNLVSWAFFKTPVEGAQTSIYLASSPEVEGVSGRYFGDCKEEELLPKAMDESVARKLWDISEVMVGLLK
Chain of UniProt Q8WV92 (Q8WV92 whole entry): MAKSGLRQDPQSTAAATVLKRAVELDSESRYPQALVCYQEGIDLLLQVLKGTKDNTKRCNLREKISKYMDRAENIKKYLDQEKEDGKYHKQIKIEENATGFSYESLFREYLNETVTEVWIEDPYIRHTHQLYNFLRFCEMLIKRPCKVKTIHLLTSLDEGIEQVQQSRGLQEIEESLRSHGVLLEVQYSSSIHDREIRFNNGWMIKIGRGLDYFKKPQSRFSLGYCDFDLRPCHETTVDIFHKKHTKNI
Chain of UniProt Q12906 (Q12906 whole entry): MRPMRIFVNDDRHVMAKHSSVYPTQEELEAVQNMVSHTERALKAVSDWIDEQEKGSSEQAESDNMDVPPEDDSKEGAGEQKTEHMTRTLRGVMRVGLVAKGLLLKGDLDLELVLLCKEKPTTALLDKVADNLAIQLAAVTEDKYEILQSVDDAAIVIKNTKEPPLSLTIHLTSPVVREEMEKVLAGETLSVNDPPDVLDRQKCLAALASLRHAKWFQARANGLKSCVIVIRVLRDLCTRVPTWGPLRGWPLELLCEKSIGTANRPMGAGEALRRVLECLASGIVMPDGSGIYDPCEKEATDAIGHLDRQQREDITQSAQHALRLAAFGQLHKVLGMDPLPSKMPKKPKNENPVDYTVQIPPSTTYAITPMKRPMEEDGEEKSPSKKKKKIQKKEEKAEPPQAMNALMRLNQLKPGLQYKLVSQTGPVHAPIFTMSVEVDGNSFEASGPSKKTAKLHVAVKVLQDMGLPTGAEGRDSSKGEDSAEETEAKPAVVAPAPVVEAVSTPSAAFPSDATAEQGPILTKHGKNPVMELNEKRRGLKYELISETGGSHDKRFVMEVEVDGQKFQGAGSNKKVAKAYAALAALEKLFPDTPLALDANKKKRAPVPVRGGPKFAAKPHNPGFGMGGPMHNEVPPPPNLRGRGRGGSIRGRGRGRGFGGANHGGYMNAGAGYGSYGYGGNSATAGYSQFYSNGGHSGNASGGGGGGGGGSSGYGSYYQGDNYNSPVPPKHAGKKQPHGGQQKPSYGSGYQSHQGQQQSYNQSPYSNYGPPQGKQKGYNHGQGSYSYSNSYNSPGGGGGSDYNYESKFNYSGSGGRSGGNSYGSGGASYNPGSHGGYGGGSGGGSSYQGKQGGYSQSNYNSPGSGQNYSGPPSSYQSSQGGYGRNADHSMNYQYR
Chain of UniProt Q6UX07 (Q6UX07 whole entry): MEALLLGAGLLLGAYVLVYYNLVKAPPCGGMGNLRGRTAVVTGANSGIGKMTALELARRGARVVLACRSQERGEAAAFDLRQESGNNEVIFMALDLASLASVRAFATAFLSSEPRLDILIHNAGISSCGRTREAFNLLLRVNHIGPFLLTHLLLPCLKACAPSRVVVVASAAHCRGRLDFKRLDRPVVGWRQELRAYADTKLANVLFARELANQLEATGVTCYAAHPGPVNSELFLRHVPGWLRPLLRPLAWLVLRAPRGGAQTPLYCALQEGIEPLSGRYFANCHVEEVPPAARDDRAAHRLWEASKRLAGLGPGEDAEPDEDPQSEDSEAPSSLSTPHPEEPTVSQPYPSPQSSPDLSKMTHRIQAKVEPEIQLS

| Target | thermal stability z-score (lipoamide; [1]) | thermal stability z-score (lipoamide; arsenate co-treatment: none) | thermal stability z-score (potassium arsenate) |
| --- | --- | --- | --- |
| TMEM109 (UniProt Q9BVC6) | 0.0915 | 0.27 | 0.115 |
| CHPF2 (UniProt Q9P2E5) | -0.824 | -0.516 | -0.154 |
| WIPF2 (UniProt Q8TF74) | 0.726 | 0.703 | 0.0475 |
| RNF123 (UniProt Q5XPI4) | -0.194 | -0.0174 | -0.445 |
| CCNH (UniProt P51946) | -0.00877 | 0.0852 | 0.325 |
| ERCC3 (UniProt P19447) | 0.0686 | 0.0573 | 0.156 |
| PEX5 (UniProt P50542) | -0.624 | -0.706 | 0.137 |
| ELAC2 (UniProt Q9BQ52) | -0.243 | -0.21 | -0.274 |
| ILF3 (UniProt Q12906) | 1.39 | 0.801 | -1.11 |
| MTO1 (UniProt Q9Y2Z2) | 0.544 | 0.263 | 1.97 |
| SNAP23 (UniProt O00161) | 0.994 | 1.06 | -0.16 |
| C6ORF106 (UniProt Q9H6K1) | -0.69 | -0.401 | 0.242 |
| PMS1 (UniProt P54277) | -0.133 | -0.0146 | -0.486 |
| NAXD (UniProt Q8IW45) | -0.31 | 0.472 | 0.0249 |
| GSE1 (UniProt Q14687) | 0.0903 | 0.0397 | -0.12 |
| DNPH1 (UniProt O43598) | 0.0889 | -0.11 | -0.0373 |
| UCHL3 (UniProt P15374) | 0.844 | 0.126 | -0.0572 |
| ANKFY1 (UniProt Q9P2R3) | 0.069 | 0.106 | 0.477 |
| LIN7C (UniProt Q9NUP9) | 0.138 | 0.419 | 0.379 |
| GGCX (UniProt P38435) | -0.482 | -0.632 | -0.0562 |
| SLC39A14 (UniProt Q15043) | -0.0157 | -0.137 | -0.236 |
| COPS3 (UniProt Q9UNS2) | 0.508 | 0.201 | 0.344 |
| RIC8B (UniProt Q9NVN3) | -1.09 | -0.233 | -0.00195 |
| FAM177A1 (UniProt Q8N128) | -0.313 | -0.584 | 1.04 |

| Target | thermal stability z-score (lipoamide; [1]) | thermal stability z-score (lipoamide; arsenate co-treatment: none) | thermal stability z-score (potassium arsenate) |
| --- | --- | --- | --- |
| REEP5 (UniProt Q00765) | 0.359 | 1 | 0.354 |
| MAD1L1 (UniProt Q9Y6D9) | 2.13 | 0.887 | 1.62 |
| MITD1 (UniProt Q8WV92) | 0.39 | 0.109 | 0.168 |
| TMEM186 (UniProt Q96B77) | -1.59 | -0.895 | -0.803 |
| UBXN1 (UniProt Q04323) | 0.155 | 0.25 | -0.0349 |
| NAMPT (UniProt P43490) | 0.551 | 0.0412 | -0.494 |
| SNX12 (UniProt Q9UMY4) | -0.128 | -0.00318 | 0.108 |
| NOP58 (UniProt Q9Y2X3) | 0.0369 | -0.0387 | 0.471 |
| GEMIN4 (UniProt P57678) | -0.347 | -0.228 | -0.0793 |
| OGFOD1 (UniProt Q8N543) | 0.312 | -0.342 | 1.04 |
| RBMX (UniProt P38159) | 1.51 | 0.311 | -0.366 |
| DHRS13 (UniProt Q6UX07) | 0.049 | 0.274 | 0.0183 |
| PMS2 (UniProt P54278) | -0.198 | -0.101 | -0.0209 |
| MBD4 (UniProt O95243) | -0.0777 | 0.0091 | -0.571 |
| CLYBL (UniProt Q8N0X4) | 0.208 | 0.433 | 0.695 |
| ST7 (UniProt Q9NRC1) | -0.0918 | 0.0296 | -1.16 |
| DHX32 (UniProt Q7L7V1) | -1.73 | -1.67 | 0.629 |
| NRDC (UniProt O43847) | -0.0123 | -0.0343 | 0.364 |
| BMP1 (UniProt P13497) | 0.492 | 0.427 | 0.347 |
| SUPT4H1 (UniProt P63272) | -0.0276 | -0.173 | -0.164 |
| ARHGAP28 (UniProt Q9P2N2) | -0.114 | -0.103 | -0.0848 |
| MAPRE2 (UniProt Q15555) | -0.858 | 0.732 | 1.11 |
| NOP9 (UniProt Q86U38) | 0.182 | 0.121 | -0.372 |
| NOP14 (UniProt P78316) | -0.68 | -0.438 | -0.581 |

| Target | thermal stability z-score (lipoamide; [1]) | thermal stability z-score (lipoamide; arsenate co-treatment: none) | thermal stability z-score (potassium arsenate) |
| --- | --- | --- | --- |
| VPS45 (UniProt Q9NRW7) | 0.546 | 0.434 | 0.0668 |
| STX18 (UniProt Q9P2W9) | 0.00945 | 0.0404 | 0.066 |
| TIPIN (UniProt Q9BVW5) | -0.58 | 0.146 | 0.349 |
| RPRD2 (UniProt Q5VT52) | 1.99 | 1.64 | 0.719 |
| ZNF384 (UniProt Q8TF68) | -0.017 | 0.00673 | -0.241 |
| RAB11FIP1 (UniProt Q6WKZ4) | 0.271 | -0.127 | -0.162 |
| RDH14 (UniProt Q9HBH5) | 1.25 | 0.852 | 1.53 |
| LSM2 (UniProt Q9Y333) | 0.00908 | 0.0523 | -0.136 |
| NDUFB10 (UniProt O96000) | -0.509 | -0.759 | 0.18 |
| GPX4 (UniProt P36969) | -0.524 | -0.696 | 0.286 |
| PHGDH (UniProt O43175) | 1.08 | 0.761 | -2.42 |
| TNS1 (UniProt Q9HBL0) | -0.0135 | -0.0322 | -0.162 |
| KIAA0586 (UniProt Q9BVV6) | 0.234 | 0.264 | -0.133 |
| PLOD2 (UniProt O00469) | -3.92 | -3.35 | 0.877 |
| SPCS2 (UniProt Q15005) | -0.33 | -0.411 | -0.373 |
| NFIC (UniProt P08651) | 0.26 | 0.173 | -0.494 |
| GLG1 (UniProt Q92896) | -1.88 | -1.9 | -0.0446 |
| CPNE3 (UniProt O75131) | 1.73 | 2.22 | 0.283 |
| MAP7D3 (UniProt Q8IWC1) | -0.18 | -0.509 | -1.36 |
| MBOAT7 (UniProt Q96N66) | -0.956 | -0.883 | -0.732 |
| WWP2 (UniProt O00308) | -0.0648 | -0.0387 | 0.0179 |
| RHOBTB3 (UniProt O94955) | 0.00346 | 0.217 | -0.0881 |
| GATAD2B (UniProt Q8WXI9) | 0.511 | 0.315 | -0.539 |
